Experimental findings from patent US8697876B2, “Compositions and methods of synthesis of pyridinolypiperidine 5-HT1F agonists” (Colucid Pharmaceuticals, Inc., priority 2010, dated 2014) are described below.

The structures appear in SMILES notation.

This data set in a line: Solid-state properties of Form A (hygroscopicity). The format is physicochemical. The conditions noted are these: crystalline anhydrate.

Take `CN1CCC(C(=O)c2cccc(NC(=O)c3c(F)cc(F)cc3F)n2)CC1.O=C(O)CCC(=O)O` [Form A, 2,4,6-Trifluoro-N-(6-(1-methylpiperidine-4-carbonyl)pyridine-2-yl)benzamide Hemisuccinate]: the hygroscopicity result is given as “non-hygroscopic”.
